Values joined by “and” are separate entries in the source; they are usually repeats but may differ in a detail not shown here. Equal values may be shown once.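 Cultured in 96-well plates, cells were exposed to test compound for 48 hours across five concentrations. The concentration for 50% growth inhibition is given as GI50. The concentration for full growth arrest is given as TGI.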 A value given as a limit tells only on which side of the number the result lay.

Test systems include IGROV1 ovarian; 786-0 renal; M14 melanoma; NCI-H460 lung; MCF7 breast; SF-295 CNS; SN12C renal; K-562 leukemia; LOX IMVI melanoma; SF-268 CNS.
Holding throughout (assay): inhibition of tumour cell growth, NCI panel, 48 h

With `O=C1CN=C(c2ccc[nH]2)c2cc(Cl)ccc2N1`, the GI50 in the assay with IGROV1 ovarian was over 100 µM; with 786-0 renal, over 100 µM; in the assay with M14 melanoma, over 100 µM; with NCI-H460 lung it was 4.38 µM; in the assay with MCF7 breast, over 100 µM; in the assay with SF-295 CNS it was over 100 µM. Moreover, the GI50 with SN12C renal is over 100 µM; in the assay with K-562 leukemia, 54 µM; with LOX IMVI melanoma, 17.9 µM; in the assay on SF-268 CNS, over 100 µM. Also, the TGI in the assay on IGROV1 ovarian, in the assay on 786-0 renal, in the assay on M14 melanoma, in the assay on NCI-H460 lung, in the assay on MCF7 breast and with SF-295 CNS was over 100 µM in each case. Also, the TGI in the assay with SN12C renal, with K-562 leukemia, in the assay with LOX IMVI melanoma and in the assay on SF-268 CNS was over 100 µM throughout.

Regarding `COc1ccc(Sc2[nH]c(C=O)c3ccccc23)cc1`, the GI50 is 13.8 µM in the assay on IGROV1 ovarian; 12 µM in the assay on 786-0 renal; 12.4 µM in the assay with M14 melanoma; 2.94 µM with NCI-H460 lung; 12.8 µM in the assay on MCF7 breast; 9.16 µM with SF-295 CNS. Also, the GI50 is 14.9 µM in the assay with SN12C renal, 2.14 µM with K-562 leukemia, 12.3 µM in the assay on LOX IMVI melanoma and 14.9 µM in the assay on SF-268 CNS. In addition, the TGI was 37.6 µM in the assay with IGROV1 ovarian; 26.1 µM with 786-0 renal; 26 µM with M14 melanoma; 11.2 µM with NCI-H460 lung; 30.2 µM with MCF7 breast; 26.9 µM with SF-295 CNS. Moreover, the TGI in the assay with SN12C renal amounted to 33.1 µM; in the assay with K-562 leukemia, 14.2 µM; in the assay with LOX IMVI melanoma, 25.4 µM; in the assay on SF-268 CNS it was 31.2 µM.

Consider `COC(=O)[C@H](Cc1cn(C)cn1)NC(=O)[C@H](CC(C)C)NC(=O)Nc1cc(C(F)(F)F)cc(C(F)(F)F)c1`, for which the GI50 in the assay with IGROV1 ovarian is 4.63 µM; in the assay on 786-0 renal, over 10 µM; with M14 melanoma, over 10 µM; in the assay with NCI-H460 lung, over 10 µM; in the assay on MCF7 breast, 2.52 µM; in the assay with SF-295 CNS, over 10 µM. For the same compound, the GI50 in the assay on SN12C renal is 6.69 µM; in the assay with K-562 leukemia it was 6.41 µM; in the assay on LOX IMVI melanoma it was 4.89 µM; with SF-268 CNS, 3.16 µM. The TGI was over 10 µM with IGROV1 ovarian; over 10 µM with 786-0 renal; over 10 µM with M14 melanoma; over 10 µM with NCI-H460 lung; 7.76 µM in the assay with MCF7 breast; over 10 µM in the assay with SF-295 CNS. Also, the TGI in the assay with SN12C renal, in the assay with K-562 leukemia, with LOX IMVI melanoma and in the assay on SF-268 CNS was over 10 µM each time.

In the case of `c1cc(OCCN2CCCC2)ccc1CNc1ccc2nc(CCC3CCCCC3)[nH]c2c1`, the GI50 is 2.12 µM with IGROV1 ovarian; 1.57 µM with 786-0 renal; 1.6 µM in the assay with M14 melanoma; 2.13 µM in the assay on NCI-H460 lung; 1.63 µM in the assay on MCF7 breast; 1.97 µM in the assay with SF-295 CNS. The GI50 in the assay with SN12C renal was 2.08 µM; in the assay on K-562 leukemia, 0.414 µM; in the assay with LOX IMVI melanoma, 1.67 µM; in the assay on SF-268 CNS, 1.82 µM. Further, the TGI in the assay with IGROV1 ovarian came out at 6.43 µM; in the assay with 786-0 renal, 3.27 µM; with M14 melanoma, 3.23 µM; in the assay on NCI-H460 lung, 4.87 µM; with MCF7 breast, 4.66 µM; with SF-295 CNS, 3.86 µM. Also, the TGI in the assay on SN12C renal is 8.21 µM; in the assay on K-562 leukemia, 2.11 µM; in the assay on LOX IMVI melanoma it was 3.11 µM; with SF-268 CNS it was 4.38 µM.

On to `CCn1nc(C2CCN(C(=O)CCO)CC2)nc1-c1cnc(N)c(-c2nnc(C(C)(C)C)o2)n1`, for which the GI50 in the assay with IGROV1 ovarian is 0.245 µM; with 786-0 renal, 3.11 µM; in the assay with M14 melanoma, 27.7 µM; with NCI-H460 lung, 3.9 µM; in the assay on MCF7 breast it was 0.375 µM; in the assay on SF-295 CNS, 3.27 µM. Also, the GI50 was 6.34 µM with SN12C renal, 27.8 µM in the assay with K-562 leukemia, 3.2 µM in the assay on LOX IMVI melanoma and 23.1 µM in the assay with SF-268 CNS. The TGI in the assay with IGROV1 ovarian, in the assay on 786-0 renal, with M14 melanoma, with NCI-H460 lung, with MCF7 breast and with SF-295 CNS was over 100 µM throughout. Besides, the TGI is over 100 µM in the assay on SN12C renal, over 100 µM with K-562 leukemia, 19.8 µM in the assay on LOX IMVI melanoma and over 100 µM in the assay with SF-268 CNS.

For the compound `CC(=O)O[C@@H]1c2c(c3c(=O)c4cccc(O)c4c(=O)c=3c2=[N+]=[N-])[C@H](OC(C)=O)[C@@H](OC(C)=O)[C@]1(C)O`, the GI50 in the assay with IGROV1 ovarian was 0.3 µM; in the assay with 786-0 renal, 0.221 µM; in the assay on M14 melanoma, 0.293 µM; with NCI-H460 lung it was 0.149 µM; in the assay with MCF7 breast, 0.142 µM; with SF-295 CNS it was 0.785 µM. Also, the GI50 in the assay with SN12C renal was 0.236 µM and 0.0851 µM; in the assay on K-562 leukemia, 0.0909 µM; with SF-268 CNS, 0.391 µM. In addition, the TGI in the assay on IGROV1 ovarian is 0.987 µM and 1.15 µM; in the assay on 786-0 renal, 0.944 µM and 0.548 µM; in the assay with M14 melanoma, 0.992 µM and 0.357 µM; in the assay on NCI-H460 lung, 1.9 µM and 0.352 µM; with MCF7 breast it was 1.11 µM and 0.291 µM; in the assay with SF-295 CNS it was 1.5 µM and 1.56 µM. For the same compound, the TGI in the assay on SN12C renal was 0.815 µM and 0.288 µM; in the assay on K-562 leukemia, 3.1 µM and 0.444 µM; with LOX IMVI melanoma, 0.413 µM and 0.275 µM; in the assay on SF-268 CNS, 0.914 µM and 1.67 µM.

The record behind these values is PubChem BioAssay (NCI).
